In US20080248008A1, “Inhibitors of Protein Kinase a Anchoring” (priority 2004, published 2008):

Assays:
RI = biological target: T1, RI (Homo sapiens, UniProt P10644); test: Co-immunoprecipitation with RI in transfected HEK293 cells; assay type: cell-based; details: HEK293 cells transfected with GFP-fusion constructs
T1 construct: endogenous in cells; host or cells: HEK293 (transfected only with GFP-peptide constructs)
Protocol: HEK293 cells at […] were transfected with ten μg of plasmid DNA (GFP, GFP-MEME3 or GFP-Scrambled MEME3) by using the CaCl2 method. Cells were lysed after 30 hours in lysis buffer (20 mM Hepes, pH 7.5/150 mM NaCl/1 mM EDTA/1% Triton X-100) with protease inhibitors (Complete Mini, EDTA-free tablets, Roche).
Immunoblot analysis. Immunocomplexes and lipid raft fractions were analysed on a 10, 15% or 4-20% PAGE and blotted onto PVDF membranes. The filters were blocked in 5% non-fat dry milk in TBST for 30 minutes at RT, incubated 1 hour at RT (or overnight at 4° C.) with primary antibodies, washed four times 5 minutes in TBST with 0.1% Tween-20 and incubated with a horseradish-peroxidase-conjugated secondary antibody. Blots were developed by using Supersignal West Dura Extended Duration Substrate or Supersignal West Pico substrate (Pierce).
Antibodies. RI or RII were immunoprecipitated with polyclonal antibodies against human RI or human RII at a 3 μg/ml dilution (Santa Cruz Biotechnology). MEME3 or scrambled peptide was immunoprecipitated with 1.5 μl of anti-GFP antiserum (Invitrogen). […]
Immunocomplexes were analysed on 10% PAGE (B and C) or 15% PAGE (D) and subjected to Western blotting using anti-GFP, anti-RI or anti-RII as indicated and blotted onto PVDF membranes. […]

PKA-C subunit = test: Coimmunoprecipitation of PKA kinase activity from HEK293 cells; assay type: biochemical, human
Protocol: Coimmunoprecipitation of PKA kinase activity. Cells at 50-80% confluency were transfected by using FuGENE (Roche Biochemicals). Five micrograms of plasmid DNA (GFP-AKAP-is-V5His, GFP-Scrambled-AKAP-is-V5His, GFP-MEME3-V5H is-and GFP-Scrambled-MEME3-V5His) was transfected into HEK293-cells. Cells were lysed 24 h later in 20 mM Hepes, pH 7.5/150 mM NaCl/1 mM EDTA/1% Triton X-100. MEME3 and the other peptides was immunoprecipitated. PKA kinase assays were performed by the filter paper assay (Corbin and Reimann, 1974, Methods Enzymol., 38, 287-294). The protein kinase inhibitor (PKI) residues 5-24 peptide was used as a specific inhibitor of the kinase (Scott et al., 1986, PNAS, 83, 1613-1616).
The specific activity (pmol/min per IP) of PKA-C subunit from HEK293 cells co-precipitating with chimeric MEME3 fusion protein was measured by a phosphotransferase assay using Kemptide as a substrate (Kemp et al., J. Biol. Chem. 252, p 4888-4894, 1977; Roskoski, R. Methods Enzymol. 99, p 3-6, 1983) in the absence and presence of cAMP (FIG. 12). Specific PKA activity was abrogated when PKI (5-24) peptide (10 μM) was added to the reaction mixture. The MEME3 fusion protein coprecipitated 17-fold more PKA-C activity than the RIIα-selective peptide, AKAP-is (IS) (Alto et al., 2003, supra). […] The accumulated data from three independent experiments are shown.

PKA type I = biological target: T2, PKA type I (Mus musculus, UniProt Q9DBC7); test: Solid phase immobilization from Y-1 adrenal cell lysate, PKA type I; assay type: binding; details: overnight
T2 construct: host or cells: mouse Y-1 adrenocortical cells (lysate)
Protocol: Solid phase assay and cell lysate. 5×10^6 Y1 cells or 20×10^6 Jurkat T cells lysed in 150 mM NaCl, 1% NP-40, 0.5% deoxycholate, 0.1% SDS and 50 mM Tris HCl (7.8) were incubated overnight at 4° C. with MEME3 and SM3 peptides synthesized on membranes (Autospot, Intavis, AG). The membranes were washed two times for 10 minutes in lysis buffer and thereafter in high salt lysis buffer (1 M NaCl) before boiling in SDS-PAGE loading buffer.
A solid phase immobilization assay (schematic illustration in FIG. 24, left panel) was used to analyse endogenous PKA binding to MEME3. MEME3 and SM3 peptides synthesized in triplicate on membranes were incubated overnight in lysate from Y-1 adrenal cells. Thereafter bound proteins were eluted, subjected to 10% PAGE and analysed by immunoblotting using specific antibodies against PKA-RIα, PKA-C and PKA-RIIα subunits.

[1] = Circular dichroism, α helical content; assay type: physicochemical
Protocol: Circular Dichroism. CD spectra were recorded by using a Jasco J-810 spectropolarimeter (Jasco). Measurements were performed at 25° C. by using a quartz cuvette (Starna) with a path length of 0.1 cm. All the measurements were performed with a peptide concentration of 0.10 mg/ml in PBS containing 0-75% trifluoroethanol (TFE). Samples were scanned five times at 20 nm/min with a bandwidth of 1 nm and a response time of 1 s, over the wavelength range 190 to 260 nm. The data were averaged, and the spectrum of a peptide-free control sample was subtracted. The α helical content was calculated after smoothing (means-movement method; convolution width, 13) from ellipticity data, using the neural network program CDNN version 2.1. All measurements were conducted three times.

CC[C@H](C)[C@H](NC(=O)[C@H](CCC(N)=O)NC(=O)[C@H](CC(=O)O)NC(=O)[C@H](C)NC(=O)[C@H](CC(C)C)NC(=O)[C@H](CCC(N)=O)NC(=O)[C@H](CC(N)=O)NC(=O)[C@H](C)NC(=O)[C@H](Cc1ccc(O)cc1)NC(=O)[C@H](CCC(N)=O)NC(=O)[C@H](CCC(=O)O)NC(=O)[C@@H](N)CC(C)C)C(=O)N[C@H](C(=O)N[C@@H](CCCCN)C(=O)N[C@@H](CCC(=O)O)C(=O)N[C@@H](C)C(=O)N[C@H](C(=O)N[C@@H](CCC(=O)O)C(=O)N[C@@H](CCCCNC(=O)c1ccc2c(c1)C(=O)OC21c2ccc(O)cc2Oc2cc(O)ccc21)C(N)=O)[C@@H](C)O)[C@@H](C)CC [MEME3]
co-precipitation with RI (RI): Co-precipitation of MEME3 with RI
coprecipitated PKA-C activity relative to AKAP-is (IS) (PKA-C subunit; Kemptide substrate, three experiments): 17 fold
immobilization of PKA type I (PKA-RIα, PKA-C) (PKA type I): Only PKA type I was immobilized
helicity ([1]; 50% TFE): 49%
helicity ([1]; absence of TFE): 12%

IEKELAQQYQNADAITLE [SM3, scrambled MEME3 negative control peptide, reference compound]
co-precipitation with RI (RI): did not co-precipitate with RI
coprecipitated kinase activity (PKA-C subunit): No kinase activity was detected
immobilization of PKA type I (PKA-RIα, PKA-C) (PKA type I): Neither PKA-RIα, PKA-C nor PKA-RIIα were immobilized
helicity ([1]; 50% TFE): 29%
helicity ([1]; absence of TFE): 7%

LEQYANQLADQIIKEATERRRRRRRRRrr [MEME3-Arg11]
helicity ([1]; 50% TFE): 39%
